Results reported in ChEMBL document CHEMBL1124561, “Synthesis of acyclonucleoside hydroxamic acids as inhibitors of ribonucleotide reductase” (J Med Chem, 1989).
“And” between values parts separate entries of the source, which are not always exact repeats. Equal values may be shown once.

Assays:
HeLa [1] = experiment: Percent inhibition of growth of human cervical carcinoma (HeLa) cells in culture at 25 micro g/mL of the compound; format: functional
HeLa [2] = experiment: Percent inhibition of growth of human cervical carcinoma (HeLa) cells in culture at 50 micro g/mL of the compound; format: functional
HeLa [3] = experiment: Percent inhibition of growth of human cervical carcinoma (HeLa) cells in culture at 10 micro g/mL of the compound; format: functional
[4] = Inhibition against cytidine diphosphate reductase activity in calf thymus; format: tissue-based, Bos taurus
HeLa [5] = experiment: Percent inhibition of growth of human cervical carcinoma (HeLa) cells in culture at 5 micro g/mL of the compound; format: functional
HeLa [6] = experiment: Percent inhibition of growth of human cervical carcinoma (HeLa) cells in culture at 2.5 micro g/mL of the compound; format: functional
HeLa [7] = experiment: Percent inhibition of growth of human cervical carcinoma (HeLa) cells in culture at 200 micro g/mL of the compound; format: functional
HeLa [8] = experiment: Percent inhibition of growth of human cervical carcinoma (HeLa) cells in culture at 0.1 micro g/mL of the compound; format: functional
HeLa [9] = experiment: Percent inhibition of growth of human cervical carcinoma (HeLa) cells in culture at 1 micro g/mL of the compound; format: functional
HeLa [10] = experiment: Percent inhibition of growth of human cervical carcinoma (HeLa) cells in culture at 100 micro g/mL of the compound; format: functional

Structure (SMILES)	Inhibition (HeLa [1]) [%]	Inhibition (HeLa [2]) [%]	Inhibition (HeLa [3])	IC50 [4] [µM]	Inhibition (HeLa [5]) [%]	Inhibition (HeLa [6]) [%]	Inhibition (HeLa [7]) [%]	Inhibition (HeLa [8]) [%]	Inhibition (HeLa [9]) [%]	Inhibition (HeLa [10]) [%]
NC(=O)NO [HYDROXYUREA]	77	90	63.5%	500	34.3					
O=C(NO)C(OCCO)n1cc(F)c(=O)[nH]c1=O (centres undefined)	75	80	66%	1400	40	16.5				
Nc1ccn(C(OCCO)C(=O)NO)c(=O)n1 (centres undefined)				4900			0			
O=c1[nH]cc(F)c(=O)[nH]1 [FLUOROURACIL]	77	90	63.5% and 70%		34.3			19	55	
O=C(NO)C(OCCO)n1ccc(=O)[nH]c1=O (centres undefined)	19	13		2200			97			47
